Data taken from patent publication US20090048301A1 (IMCLONE SYSTEMS INCORPORATED, priority 2003, published 2009).
Where two headings read alike, the source gives them in different places.

What was measured:
[1] = tested on: bovine tubulin; assay: In vitro tubulin polymerization assay (turbidity at 340 nm); assay type: biochemical; conditions: 10 μM compound, 30 minute data point, vs 1% DMSO control
In short: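 Bovine tubulin (97%, <3% MAPs) at 3 mg/ml final in G-PEM pH 7 with 1 mM GTP and 5% glycerol, added cold to compound wells at 37° C (1% DMSO final). A340 read each minute for 30 min; percent inhibition from 30-min point versus DMSO control.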

[2] = tested on: A431, human epidermoid carcinoma cells; assay: Cell cycle analysis (FACS), mitotic arrest in G2/M; assay type: cell-based; conditions: read-out: FACS Assay: concentration required to achieve inhibition in FACS assay
In short: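 A431 cells, 500,000/well at treatment, exposed to compounds at 0.01–1 μM final (0.1% DMSO) for 24 h. Ethanol-fixed cells RNase-treated (1 μg/ml, 37° C., 15 min), stained with propidium iodide (50 μg/ml, 30 min, RT). DNA ploidy by flow cytometry; mitotic arrest scored as G2/M accumulation.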

Structure (SMILES)	Tubulin Assay: percent inhibition at 10 μM based on 30 minute data [1]	minimal effective concentration ([2]; 24 hours)	minimal effective concentration ([2]; Homo sapiens, A-431, 24 h)
c1coc(CNc2ncccc2-c2nnc(Nc3ccc4c(c3)OCCO4)o2)c1 [Compound 205, {3-[5-(2,3-Dihydro-benzo[1,4]dioxin-6-ylamino)-[1,3,4]oxadiazol-2-yl]-pyridin-2-yl}-furan-2-ylmethyl-amine]	56%	1 µM	–
COc1cc(CNc2ccccc2-c2nnc(Nc3ccc4c(c3)OCCO4)o2)cc(OC)c1 [Compound 219, (2,3-Dihydro-benzo[1,4]dioxin-6-yl)-{5-[2-(3,5-dimethoxy-benzylamino)-phenyl]-[1,3,4]oxadiazol-2-yl}-amine]	63%	–	0.1 µM
CS(=O)(=O)c1ccc(-c2nnc(-c3cccnc3NCc3ccc4c(c3)OCCO4)[nH]2)cc1 [Compound 105, (2,3-Dihydro-benzo[1,4]dioxin-6-ylmethyl)-{3-[5-(4-methanesulfonyl-phenyl)-4H-[1,2,4]triazol-3-yl]-pyridin-2-yl}-amine]	91%	–	1 µM
CS(=O)(=O)c1ccc(-c2nnc(-c3cccnc3NCC3COCCO3)[nH]2)cc1 (stereo not shown) [Compound 103, [1,4]Dioxan-2-ylmethyl-{3-[5-(4-methanesulfonyl-phenyl)-4H-[1,2,4]triazol-3-yl]-pyridin-2-yl}-amine]	80%	–	1 µM
COc1cccc(Nc2ncc(-c3ccccc3NCc3ccc4c(c3)OCCO4)o2)c1 [Compound 250, (5-{2-[(2,3-Dihydro-benzo[1,4]dioxin-6-ylmethyl)-amino]-phenyl}-oxazol-2-yl)-(3-methoxy-phenyl)-amine]	60%	–	1 µM
Fc1ccc(CNc2ncccc2-c2nnc(Nc3ccc4c(c3)OCCO4)o2)cc1F [Compound 161, (3,4-Difluoro-benzyl)-{3-[5-(2,3-dihydro-benzo[1,4]dioxin-6-ylamino)-[1,3,4]oxadiazol-2-yl]-pyridin-2-yl}-amine]	82%	–	0.1 µM
c1ccc(-c2nnc(Nc3ccc4c(c3)OCCO4)[nH]2)c(NCc2ccncc2)c1 [Compound 122, (2,3-Dihydro-benzo[1,4]dioxin-6-yl)-(5-{2-[(pyridin-4-ylmethyl)-amino]-phenyl}-4H-[1,2,4]triazol-3-yl)-amine]	84%	–	1 µM
c1ccc(CNc2ncccc2-c2nnc(Nc3ccc4c(c3)OCCO4)o2)nc1 [Compound 207, {3-[5-(2,3-Dihydro-benzo[1,4]dioxin-6-ylamino)-[1,3,4]oxadiazol-2-yl]-pyridin-2-yl}-pyridin-2-ylmethyl-amine]	87%	–	0.025 µM
COc1cccc(Nc2ncc(-c3ccccc3NCc3ccc4c(c3)OCO4)o2)c1 [Compound 249, (5-{2-[(Benzo[1,3]dioxol-5-ylmethyl)-amino]-phenyl}-oxazol-2-yl)-(3-methoxy-phenyl)-amine]	60%	–	1 µM
COc1cc(CNc2ccccc2-c2cnc(Nc3ccc4c(c3)OCCO4)o2)cc(OC)c1 [Compound 246, (2,3-Dihydro-benzo[1,4]dioxin-6-yl)-{5-[2-(3,5-dimethoxy-benzylamino)-phenyl]-oxazol-2-yl}-amine]	72%	–	1 µM
c1cnc(NCc2ccncc2)c(-c2nnc(Nc3ccc4c(c3)OCCO4)o2)c1 [Compound 206, {3-[5-(2,3-Dihydro-benzo[1,4]dioxin-6-ylamino)-[1,3,4]oxadiazol-2-yl]-pyridin-2-yl}-pyridin-4-ylmethyl-amine]	94%	–	0.025 µM
